≈ marks a conversion by molar mass, not a printed value.
What was measured:
[1] = Aqueous solubility assay, Protocol A, nephelometry method; type: physicochemical; conditions: PBS with 5% DMSO, aqueous with cosolvent or surfactant or cyclodextrin, kinetic from dmso stock, PBS pH 7.4, 5% DMSO, 23° C., 24 hours, read-out: Aqueous solubility pH 7.4
Protocol: Aqueous solubility of compounds was determined by nephelometry or by the shake-flask method as follows:
Protocol A, nephelometry method:
Solubility of compounds was measured in PBS (pH 7.4), 5% DMSO at 23° C. Nepheloskan Ascent (Thermo Electron Corporation) nephelometer was used for measurement of light scattering. Tested compounds were dissolved in DMSO to 10 mM. Prior to measurement the compounds were further diluted with PBS in the wells to final compound concentrations of 100, 70, 50, 35, 25, 17, 12 and <10 μg/ml.
The plates were incubated at room temperature for 24 hours to reach equilibrium and the scattered light was measured. Assay validation: Aqueous solubility of acetylsalicylic acid was determined to validate the assay.
The following compounds of Table 2 exemplify such solubility with “−−” meaning solubility<2 μM, “+” meaning 2 μM solubility 100 μM and “++” meaning solubility

[2] = biological target: T1, human FXRalpha ligand binding domain (LBD) (Homo sapiens, UniProt Q96RI1); experiment: FRET activity assay (ligand mediated cofactor peptide interaction, LANCE); type: biochemical; conditions: GST-FXR-LBD / biotinylated SRC-1 peptide (676-700)
T1 construct: made in house; host or cells: E. coli BL21(DE3), vector pDEST15
T1 sequence (Q96RI1 187-472 isoform Q96RI1-2): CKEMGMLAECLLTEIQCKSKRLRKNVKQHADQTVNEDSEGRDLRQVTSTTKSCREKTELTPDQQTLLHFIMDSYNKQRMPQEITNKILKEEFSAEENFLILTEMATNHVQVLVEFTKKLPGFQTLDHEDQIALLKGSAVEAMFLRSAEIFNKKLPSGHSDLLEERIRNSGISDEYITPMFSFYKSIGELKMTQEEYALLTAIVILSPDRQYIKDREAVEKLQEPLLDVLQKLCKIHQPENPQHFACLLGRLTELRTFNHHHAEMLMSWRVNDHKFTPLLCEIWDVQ
Protocol: Determination of a ligand mediated cofactor peptide interaction to quantify ligand binding to the nuclear receptor Farnesoid X Receptor (FXR) was performed as follows:
Preparation of human farnesoid X receptor (FXR) alpha ligand binding domain: The human FXRalpha ligand binding domain (LBD) was expressed in E. coli strain BL21(DE3) as an N-terminally glutathione-[…] (GST) tagged fusion protein. The DNA encoding the FXR ligand binding domain was cloned into vector pDEST15 (Invitrogen). Expression was under control of an IPTG inducible T7 promoter. The amino acid boundaries of the ligand binding domain were amino acids 187-472 of Database entry NM_005123 (RefSeq). Expression and purification of the FXR-LBD: An overnight preculture of a transformed E. coli strain was diluted 1:20 in LB-Ampicillin medium and grown at 30° C. to an optical density of OD600=0.4-0.6. Gene expression was then induced by addition of 0.5 mM IPTG. Cells were incubated an additional 6 h at 30° C., 180 rpm. Cells were collected by centrifugation (7000×g, 7 min, room temperature). Per liter of original cell culture, cells were resuspended in 10 ml lysis buffer (50 mM Glucose, 50 mM Tris pH 7.9, 1 mM EDTA and 4 mg/ml lysozyme) and left on ice for 30 min. Cells were then subjected to sonication and cell debris removed via centrifugation (22000×g, 30 min, 4° C.). Per 10 ml of supernatant 0.5 ml prewashed Glutathione 4B sepharose slurry (Qiagen) was added and the suspension kept slowly rotating for 1 h at 4° C. Glutathione 4B sepharose beads were pelleted by centrifugation (2000 g, 15 sec, 4° C.) and washed twice in wash buffer (25 mM Tris, 50 mM KCl, 4 mM MgCl2 and 1M NaCl). The pellet was resuspended in 3 ml elution buffer per liter of original culture (elution buffer: 20 mM Tris, 60 mM KCl, 5 mM MgCl2 and 80 mM glutathione added immediately prior to use as powder). The suspension was left rotating for 15 min at 4° C., the beads pelleted and eluted again with half the volume of elution buffer than the first time. The eluates were pooled and dialysed overnight in 20 mM Hepes buffer (pH 7.5) containing 60 mM KCl, 5 mM MgCl2 as well as 1 mM dithiothreitol and 10% (v/v) glycerol. The protein was analysed by SDS-Page.
The method measures the ability of putative ligands to modulate the interaction between the purified bacterial expressed FXR ligand binding domain (LBD) and a synthetic biotinylated peptide based on residues 676-700 of SRC-1 (LCD2, 676-700). The sequence of the peptide used was B-[…]-COOH where the N-terminus was biotinylated (B). The ligand binding domain (LBD) of FXR was expressed as fusion protein with GST in BL-21 cells using the vector pDEST15. Cells were lysed by sonication, and the fusion proteins purified over glutathione sepharose (Pharmacia) according to the manufacturers instructions. For screening of compounds for their influence on the FXR-peptide interaction, the Perkin Elmer LANCE technology was applied. This method relies on the binding dependent energy transfer from a donor to an acceptor fluorophor attached to the binding partner of interest. For ease of handling and reduction of background from compound fluorescence LANCE technology makes use of generic fluorophore labels and time resolved detection Assays were done in a final volume of 2 5 μl in a 384 well plate, in a Tris-based buffer (20 mM Tris-HCl pH 7,5; 60 mM KCl, 5 mM MgCl2; 35 ng/μl BSA), containing 20-60 ng/well recombinantly expressed FXR-LBD fused to GST, 200-600 nM N-terminally biotinylated peptide, representing SRC1 aminoacids 676-700, 200 ng/well Streptavidin-xIAPC conjugate(Prozyme) and 6-10 ng/well Eu W1024 antiGST (Perkin Elmer). DMSO content of the samples was kept at 1%. After generation of the assay mix and diluting the potentially FXR modulating ligands, the assay was equilibrated for one hour in the dark at room temperature in FIA-plates black 384 well (Greiner). […]

Caco-2 permeability = type: in vitro ADME; conditions: human, apical to basolateral
Protocol: Caco-2 cells are widely used as an in vitro model for predicting human drug absorption. The Caco-2 cell line is derived from a human colorectal carcinoma, and when cultured, the cells spontaneously differentiate into monolayers of polarised enterocytes. The cells are seeded on Transwell™ plates and form a confluent monolayer over 20 days prior to the experiment. On day 20, the test compound is added to the apical side of the membrane and the transport of the compound across the monolayer is monitored over a 2 hour time period. To study drug efflux, it is also necessary to investigate transport of the compound from the basolateral compartment to the apical compartment. The permeability coefficient (Papp) is calculated from the following equation: […]
Where dQ/dt is the rate of permeation of the drug across the cells, CO is the donor compartment concentration at time zero and A is the area of the cell monolayer.

[3] = Plasma protein binding assay (equilibrium dialysis); type: in vitro ADME; conditions: 37° C., extrapolated fraction unbound
Protocol: Equilibrium dialysis is used to determine the extent of binding of a compound to plasma proteins. A semi-permeable membrane separates a protein-containing compartment from a protein-free compartment. The system is allowed to equilibrate at 37° C. The test compound present in each compartment is quantified by LC-MS/MS. The extent of binding is reported as a fraction unbound (fu) value which is calculated as fu=1−(PC−PF)/PC. PC=Test compound concentration in protein-containing compartment. PF=Test compound concentration in protein-free compartment. In addition to using whole plasma, the plasma protein binding assay can be performed using two other ratios of plasma (10% or 50% plasma in buffer v/v). The following equations are used to convert from a fraction unbound at 10% or 50% to a fraction unbound at 100%: […]

[4] = Rat microsomal stability assay; type: in vitro ADME; conditions: liver microsomes, 37° C., NADPH, 45 minute, read-out: Rat liver microsome clearance
Protocol: Compound stability towards rat liver microsomes was determined as follows: The microsomes are incubated with the test compound at 37° C. in the presence of the co-factor, NADPH, which initiates the reaction. The reaction is terminated by the addition of methanol. Following centrifugation, the supernatant is analysed on the LC-MS/MS. The disappearance of test compound is monitored over a 45 minute time period. The In peak area ratio (compound peak area/internal standard peak area) is plotted against time and the gradient of the line determined. Finally, Intrinsic clearance CLint is computed by the following equations: elimination rate konstant (k)=−gradient; t1/2 (min)=0.693/k; V (μl/mg)=volume of incubation (μl)/protein in incubation (mg); CLint (μl/min/mg protein)=V*0.693/t1/2.

| SMILES | solubility at 24 h [1] [µM] | melting point | IC50 [2] [nM] | Papp A→B at 2 h (Caco-2 permeability) [×10⁻⁶ cm/s] | fraction unbound [3] | microsomal CLint [4] [µL/min/mg] |
| --- | --- | --- | --- | --- | --- | --- |
| CC(C)c1onc(-c2c(Cl)cccc2Cl)c1COc1ccc(N(C)C(=O)c2ccc(C(=O)N(C)C)cc2)c(C(F)(F)F)n1 [Example 24] | – | 166.8 to 167.8 °C | ≤ 1000 | 46 | 0.0009 | – |
| Cc1nc(OCc2c(C(C)C)nnn2-c2c(Cl)cccc2Cl)ccc1N(C)S(=O)(=O)c1ccc(C(=O)O)cc1 [Example 30, 4-(N-(6-((1-(2,6-dichlorophenyl)-4-isopropyl-1H-1,2,3-triazol-5-yl)methoxy)-2-methylpyridin-3-yl)-N-methylsulfamoyl)benzoic acid] | – | 127.8 to 128.8 °C | ≤ 1000 | – | – | – |
| Cc1onc(-c2c(Cl)cccc2Cl)c1COc1ccc(NC(=O)c2cccc(C(=O)O)c2)cc1 [Compound C, reference compound] | – | – | – | 0.6 | 0.0001 | – |
| Cc1onc(-c2c(Cl)cccc2Cl)c1COc1ccc(NC(=O)c2cccc(C(=O)O)c2)cn1 [Example 15, 3-(6-((3-(2,6-dichlorophenyl)-5-methylisoxazol-4-yl)methoxy)pyridin-3-ylcarbamoyl)benzoic acid] | – | – | 1000 to 10000 | – | 0.0003 | 149 |
| Cc1cc(OCc2c(-c3c(Cl)cccc3Cl)noc2C(C)C)cnc1N(C)C(=O)c1ccc(C(=O)O)cc1 [Example 26, 4-((5-((3-(2,6-dichlorophenyl)-5-isopropylisoxazol-4-yl)methoxy)-3-methylpyridin-2-yl)(methyl)carbamoyl)benzoic acid] | – | – | 1000 to 10000 | – | – | 55 |
| CC(C)c1nnn(-c2c(Cl)cccc2Cl)c1COc1ccc(N(C)C(=O)c2ccc(C(=O)O)cc2)c(C(F)(F)F)n1 [Example 29, 4-((6-((1-(2,6-Dichlorophenyl)-4-isopropyl-1H-1,2,3-triazol-5-yl)methoxy)-2-(trifluoromethyl)pyridin-3-yl)(methyl)carbamoyl)benzoic acid] | – | 218 to 219 °C | ≤ 1000 | – | – | – |

Other lines, results leading:

| solubility at 24 h [1] [µM] | melting point | IC50 [2] [nM] | Papp A→B at 2 h (Caco-2 permeability) [×10⁻⁶ cm/s] | fraction unbound [3] | microsomal CLint [4] [µL/min/mg] | SMILES |
| --- | --- | --- | --- | --- | --- | --- |
| 2 to 100 (≈ 1.21 to 60.7 µg/mL) | 229 °C (dec.) | ≤ 1000 | – | – | – | CC(C)c1onc(-c2c(Cl)cccc2Cl)c1COc1ccc(N(C)C(=O)c2ccc(C(N)=O)cc2)c(C(F)(F)F)n1 [Example 23, N^1-(6-((3-(2,6-Dichlorophenyl)-5-isopropylisoxazol-4-yl)methoxy)-2-(trifluoromethyl)pyridin-3-yl)-N^1-methylterephthalamide] |
| – | 259.1 to 260.1 °C | ≤ 1000 | – | – | – | CC(C)c1onc(-c2c(Cl)cccc2Cl)c1COc1ccc(NCc2ccc(C(=O)O)cc2)c(C(F)(F)F)n1 [Example 27, 4-((6-((3-(2,6-Dichlorophenyl)-5-isopropylisoxazol-4-yl)methoxy)-2-(trifluoromethyl)pyridin-3-ylamino)methyl)benzoic acid] |
| – | 218 °C | ≤ 1000 | – | 0.003 | 57 | Cc1cc(OCc2c(-c3c(Cl)cccc3Cl)noc2C(C)C)cnc1NC(=O)c1ccc(C(=O)O)cc1 [Example 19, N-(5-[3-(2,6-Dichloro-phenyl)-5-isopropyl-isoxazol-4-ylmethoxy]-3-methyl-pyridin-2-yl)-terephthalamic acid] |
| > 100 | – | ≤ 1000 | 34 | 0.0005 | – | CC(C)c1onc(-c2c(Cl)cccc2Cl)c1COc1ccc(NC(=O)c2ccc(C(=O)O)cc2)c(C(F)(F)F)n1 [Example 6, N-{6-[3-(2,6-dichloro-phenyl)-5-isopropyl-isoxazol-4-ylmethoxy]-2-trifluoromethyl-pyridin-3-yl}-terephthalamic acid] |
| – | – | ≤ 1000 | – | – | – | Cc1nc(OCc2c(-c3c(Cl)cccc3Cl)noc2C(C)C)ccc1NS(=O)(=O)c1ccc(C(=O)O)cc1 [Example 3, 4-{6-[3-(2,6-Dichloro-phenyl)-5-isopropyl-isoxazol-4-ylmethoxy]-2-methyl-pyridin-3-ylsulfamoyl}-benzoic acid] |
| > 100 | 153.8 to 154.8 °C | ≤ 1000 | – | – | – | CC(C)c1onc(-c2c(Cl)cccc2Cl)c1COc1ccc(NC(=O)c2cccc(C(=O)O)c2)c(C(F)(F)F)n1 [Example 21] |

From patent US20100184809A1, “Heterocyclic FXR Binding Compounds” (PHENEX PHARMACEUTICALS AG, priority 2006, published 2010)
